Source: PubChem BioAssay AID463074 (Broad Institute, 2010)
The source made the active and inactive calls.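 How the source made its calls: active means AC50 no more than tenfold above the top dose tested, or full inhibition at every dose with a flat fit (cut at about 19 µM in these data); inconclusive means flat curve fit with inhibition between 30% and 70%, or poor fit; inactive means AC50 more than tenfold above the top dose tested.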

tested on: HMLE_sh_eGFP viability, CellTiter-Glo luminescence, 72 h; assay: cytotoxicity in HMLE control line with eGFP shRNA, dose response, counter-screen for HMLE_sh_ECad selective toxicity project, cell-based, HMLE_sh_eGFP, luminescence (AID 463074);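 further: counterscreen control line to flag general toxicity for the HMLE_sh_ECad screen; potency for loss of viability as luminescence drops below DMSO wells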

O=C(Nc1cccc(-c2csc(Nc3ccccc3)n2)c1)c1ccccc1 and CCOC(=O)/C(=N/Nc1ccccc1)c1csc(Nc2ccccc2)n1 are within 1.5-fold of each other in AC50: 4.45 µM for the first, 3.69 µM for the second.

CCCc1ccc(O)c(N=Cc2cc(Br)cc(OCC)c2O)c1 and CCn1c(C)nc2cc(C(=O)N/N=C/c3cccc(OC)c3O)ccc21 are within 1.5-fold of each other in AC50: 9.03 µM for the first, 6.95 µM for the second.

First: CC(C)N1CCc2c(sc(NC(=O)c3cc(-c4cccs4)nc4ccccc34)c2C(N)=O)C1
Second: CN1CCc2c(sc(NC(=O)c3ccc(S(=O)(=O)N4CCc5ccccc54)cc3)c2C(N)=O)C1
The AC50 of the first is 2.6-fold higher: 12.9 µM for the first, 5.01 µM for the second.

Cc1ccc(Cl)cc1N1CCN(CC(=O)NC2CCCc3ccccc32)CC1 (centres undefined) and CN1CCN(C2=Cc3cc(Cl)ccc3Sc3cc(F)ccc32)CC1 are within 1.5-fold of each other in AC50: 6.66 µM for the first, 7.29 µM for the second.

S=C(Nc1cccc(Cl)c1)N(CCCN1CCCC1)Cc1cccn1Cc1ccc(Cl)cc1 and CC1CCN(CCCNC(=O)c2ccc3c(=O)n(Cc4ccc(Cl)cc4)c(=S)[nH]c3c2)CC1 are within 1.5-fold of each other in AC50: 6.86 µM for the first, 5.33 µM for the second.

Going from CSc1ccc(C2=CC(=O)C[C@H](c3ccc(Cl)cc3)C2)cc1 to Clc1ccc(-c2nnc(-c3ccccc3)c(-c3ccccc3)n2)cc1, the AC50 falls from 9.27 µM to 3.69 µM (2.5-fold).

Going from CC(=O)N(C)c1ccc(OCC(O)Cn2c3ccc(Cl)cc3c3cc(Cl)ccc32)cc1 (centres undefined) to Cc1onc(-c2c(Cl)cccc2Cl)c1C(=O)N/N=C(\N)COc1ccc(Cl)cc1, the AC50 rises from 1.65 µM to 3.8 µM (2.3-fold).

First: CCN1CCN(Cc2ccc(NC(=O)c3cc(NC(=O)c4cncc(-c5cccs5)c4)cc(OC)c3)cc2C(F)(F)F)CC1
Second: C/C(CC(=O)Nc1ccc(Cl)c(C(F)(F)F)c1)=N\NC(=O)c1cc2ccccc2cc1O
The AC50 of the first is 3.8-fold lower: 3.52 µM for the first, 13.3 µM for the second.

Going from CC1CCN(S(=O)(=O)c2ccc3c(c2)C(=NO)c2cc(S(=O)(=O)N4CCC(C)CC4)ccc2-3)CC1 to COc1ccc(C(=O)/C=C/c2ccc(N3CCCCC3)c([N+](=O)[O-])c2)c(OC)c1, the AC50 rises from 1.01 µM to 6.6 µM (6.5-fold).

Cc1ccc(N=Nc2ccc(O)cc2)c(Br)c1 and COc1ccc(-c2[nH]ncc2N=Nc2ccccc2)cc1 are within 1.5-fold of each other in AC50: 8.42 µM for the first, 7.66 µM for the second.

First: CCOC(=O)C1CCN(c2ncnc3c2c(-c2ccccc2)cn3-c2ccccc2)CC1
Second: Cc1nn(Cc2c(Cl)cccc2Cl)c(C)c1NC(=O)c1cn(-c2ccccc2)nc1-c1ccccc1
The AC50 of the first is 6.2-fold higher: 7.43 µM for the first, 1.19 µM for the second.

Cc1ccc(-c2cc(-c3ccccc3)nc(NN)n2)cc1 and O=S(=O)(Nc1ccc(-c2csc(-c3ccccc3)n2)cc1)c1ccccc1 are within 1.5-fold of each other in AC50: 4.19 µM for the first, 5.92 µM for the second.

Compared with Cc1ccc(NC(=O)c2ccc(Cl)c(N3C(=O)C=CC3=O)c2)cc1, CCn1c(C)c(C)c2cc(C(=O)Nc3cccc(Cl)c3)ccc21 is 2-fold lower in AC50: 8.19 µM for the first, 4.05 µM for the second.

Going from COc1cc([C@@H]2c3cc4c(cc3[C@@H](O)[C@H]3COC(=O)[C@H]23)OCO4)cc(OC)c1O[Si](C)(C)C(C)(C)C to CN[C@H]1CCc2cc(OC)c(OC)c(OC)c2-c2ccc(N(C)CC(OC)OC)c(=O)cc21, the AC50 falls from 6.76 µM to 2.15 µM (3.1-fold).

Going from Cc1ccc(C)c(Cc2c(C)nc3c(C(=O)NCc4ccc5c(c4)OCO5)cnn3c2C)c1 to O=C(Nc1ccc2c(c1)OCO2)c1ccc(COc2ccc3c(c2)CCC3)o1, the AC50 falls from 19 µM to 6.25 µM (3-fold).

Compared with Cc1cccc(-n2c(/C=C/c3ccc([N+](=O)[O-])o3)nc3ccccc3c2=O)c1, Cc1cccc(CN2C(=O)[C@@H]3Cc4c([nH]c5ccccc45)C(C)(C)N3C2=O)c1 is 6.2-fold higher in AC50: 1.99 µM for the first, 12.3 µM for the second.

O=C(/C=C/c1ccc(F)cc1)c1cc(Br)ccc1O and O=C(/C=C/c1ccc2c(c1)OCCCO2)c1ccc2ccccc2c1O are within 1.5-fold of each other in AC50: 14.1 µM for the first, 12 µM for the second.

First: CC(Nc1nc(-c2ccc(Cl)cc2)cs1)c1nc2cc(Cl)c(N3CCCCC3)cc2n1CCOCCO (centres undefined)
Second: O=C(Nc1cc(C(F)(F)F)ccc1N1CCCCC1)c1ccc(Br)o1
The AC50 of the first is 4.2-fold lower: 1.97 µM for the first, 8.32 µM for the second.

First: Cc1ccc(Cl)cc1NC(=S)N/N=C/c1cccc2ccccc12
Second: Clc1ccc2c(N/N=C/c3cccc(Br)c3)ccnc2c1
The AC50 of the first is 14-fold lower: 0.298 µM for the first, 4.06 µM for the second.

Going from C=C(CC1([C@@H](NP(=O)(c2ccccc2)c2ccccc2)[C@H]2C[C@@H]2CCCC)CC1)c1ccccc1 to CCN(CC)CCOc1ccc(/C(=C(\Cl)c2ccccc2)c2ccccc2)cc1, the AC50 falls from 4.57 µM to 1.55 µM (2.9-fold).

First: CCCCc1ccc(N=N/C(C(=O)Nc2ccc(NC(C)=O)cc2OC)=C(/C)O)cc1
Second: O=C(Nc1ccc(Cn2cccn2)cc1)c1ccc(COc2cccc(Br)c2)cc1
The AC50 of the first is 59-fold higher: 17.7 µM for the first, 0.302 µM for the second.

Going from Cc1ccc(N/N=C/c2ccncc2)cc1 to Cc1cccc(C(=O)N/N=C/c2ccc(OC3CSC3)cc2)c1, the AC50 falls from 7.44 µM to 2.73 µM (2.7-fold).

Compared with S=c1[nH]nc(-c2cc(-c3ccccc3)n[nH]2)n1/N=C/C(Br)=C/c1ccccc1, O=C(/C(=C/c1cccc(Cl)c1)c1nc2ccccc2[nH]1)c1ccccc1 is 2.8-fold higher in AC50: 1.2 µM for the first, 3.35 µM for the second.

First: CC(C)CC(=O)c1c(O)c(C=O)c(O)c2c1O[C@@]1(C)[C@@H](C2)C[C@H]2C[C@@H]1C2(C)C
Second: CC1=C(CO)C(=O)OC([C@@H](C)C2CC[C@H]3C4C[C@H]5O[C@]56[C@@H](O)C=CC(=O)[C@]6(C)C4CC[C@]23C)C1 (some centres undefined)
The AC50 of the first is 3.9-fold higher: 6.32 µM for the first, 1.62 µM for the second.

First: CC(C)(C)c1nc(N2CCN(C(=O)c3ccco3)CC2)c2nnn(Cc3ccccc3Cl)c2n1
Second: C/C(=N\NC(=O)c1nnn(-c2nonc2N)c1CN1CCc2ccccc21)c1ccccc1O
The AC50 of the first is 2.7-fold higher: 8.78 µM for the first, 3.21 µM for the second.

CCCN1C/C(=C/c2ccc3c(c2)OCO3)C(=O)/C(=C/c2ccc3c(c2)OCO3)C1 and O=C(N/N=C/c1ccc2c(c1)OCO2)c1ccc(COCC(F)(F)C(F)F)cc1 are within 1.5-fold of each other in AC50: 1.12 µM for the first, 1.64 µM for the second.

Cc1cc(C2(c3ccc(O)c(C)c3)C(=O)Nc3ccccc32)ccc1O and COc1cc(N/N=C(\C)c2ccc(O)c(C)c2)nc(-c2ccccc2)n1 are within 1.5-fold of each other in AC50: 7.1 µM for the first, 4.75 µM for the second.

First: CC1(C)CN(c2ccccc2)N(C(=O)c2ccc(C#N)cc2)C1=O
Second: O=C(c1ccc(Cl)cc1)c1c[nH]c(C(=O)NNc2ccccc2)c1
The AC50 of the first is 2.3-fold higher: 4.31 µM for the first, 1.85 µM for the second.

Compared with c1ccc(CN2CCC(Nc3nc(-c4cccs4)nc4ccccc34)CC2)cc1, Cc1nc(Nc2nc(CSc3nc4ccccc4[nH]3)cc(=O)[nH]2)nc2ccccc12 is 2.5-fold lower in AC50: 6.8 µM for the first, 2.69 µM for the second.

Cc1cccc(-n2ncc(Cl)c(Cl)c2=O)c1 and Cc1ccc(NC(=O)CN(C)C(=O)Cn2ncc(Cl)c(Cl)c2=O)cc1 are within 1.5-fold of each other in AC50: 4.52 µM for the first, 4.22 µM for the second.

CCC(C)Sc1cccc(-c2nc3ccc(C)cn3c2NCc2ccccc2)c1 (centres undefined) and CCC(C)Sc1ccc(-c2nc3cnccn3c2NC2CCCCC2)cc1 (centres undefined) are within 1.5-fold of each other in AC50: 2.88 µM for the first, 3.73 µM for the second.

Going from CCCCCCCCOC(=O)C1=C(C)Nc2nnnn2C1c1cccs1 (centres undefined) to CCOC(=O)c1cc(-c2cccs2)nc2c1c(C)nn2-c1ccccn1, the AC50 rises from 6.86 µM to 11.8 µM (1.7-fold).

COc1ccc(N=C2NN=C(c3c(C)[nH]c4ccccc34)CS2)cc1 and COc1ccc(-c2sc3ccccc3c2C#CC2(O)CCCCC2)cc1 are within 1.5-fold of each other in AC50: 7.77 µM for the first, 5.38 µM for the second.

Compared with N#C/C(=C\c1c(F)cccc1Cl)c1nn(-c2ccccc2)c(-n2cccc2)c1C#N, Cc1cc(-c2ccccc2)n(-c2cc(N/N=C/c3ccccc3O)ncn2)n1 is 2.6-fold lower in AC50: 1.71 µM for the first, 0.669 µM for the second.

COc1ccc(/C=C/C(=O)c2c(O)n(CCC3=CCCCC3)c(=O)[nH]c2=O)cc1 and CCC(C)c1ccccc1NC(=O)COC(=O)c1ccc2[nH]c3c(c2c1)CCCC3 (centres undefined) are within 1.5-fold of each other in AC50: 3.33 µM for the first, 3.4 µM for the second.

Compared with O=C(Nc1nccs1)c1ccc(COc2ccccc2Cl)o1, O=C1C(Cl)=C(Nc2ccccc2)C(=O)c2ccccc21 is 4.9-fold lower in AC50: 10.8 µM for the first, 2.19 µM for the second.

First: CC(C)Oc1cccc(C(=O)NC(=S)Nc2ccccc2N2CCOCC2)c1
Second: O=C(NCCCN1CCOCC1)c1ccc(Sc2ccc(Br)cc2)c([N+](=O)[O-])c1
The AC50 of the first is higher: 13.9 µM for the first, < 0.16 µM for the second.

Going from C/C(=N\Nc1cc(C(F)(F)F)ccc1Cl)c1ccccc1O to CN(C)CCOc1ccc(C(C)(C)c2ccccc2)cc1, the AC50 falls from 19.9 µM to 5.19 µM (3.8-fold).

COc1cccc(C2C3=C(N=c4s/c(=C\c5cccc(O)c5)c(=O)n42)c2ccccc2CC3)c1OC (centres undefined) and COc1ccc(C)cc1Nc1n[n+](-c2ccccc2)c(-c2c(OC)ccc3ccccc23)s1 are within 1.5-fold of each other in AC50: 8.57 µM for the first, 6.93 µM for the second.

Going from Cc1ccc(/C=N/NC(=O)c2ccc3c(c2)OCCO3)s1 to c1cc2cc(-c3c(-c4ccc5c(c4)OCO5)noc3-c3ccsc3)ccc2[nH]1, the AC50 rises from 2.49 µM to 4.19 µM (1.7-fold).

O=C(Nc1ccc2c(c1)CCC2)c1cc(S(=O)(=O)Nc2ccc(F)cc2)c(Cl)cc1Cl and Fc1ccc2[nH]c3c(N4CCc5ccccc5C4)ncnc3c2c1 are within 1.5-fold of each other in AC50: 5.38 µM for the first, 7.36 µM for the second.

Compared with COc1ccccc1C1c2ccc3ccccc3c2Oc2ncn(CCN(C)C)c(=N)c21 (centres undefined), COc1cc(/C=C(/C#N)c2nc3ccccc3[nH]2)ccc1OCC(=O)Nc1ccccc1C is 4-fold lower in AC50: 4.22 µM for the first, 1.06 µM for the second.

COc1ccc(C(CCNCc2ccc(OC(C)C)cc2)c2ccccc2OC)cc1 (centres undefined) and CCCCCc1cc(=O)oc2c(C(CCN3CCCC(C)C3)c3ccc(OC)cc3)c(OC)cc(OC)c12 (centres undefined) are within 1.5-fold of each other in AC50: 4.66 µM for the first, 5.33 µM for the second.

Going from COc1cccc2sc3cc(C#CC4(O)CCCCC4)ccc3c(=O)c12 to COc1cc(-c2noc(C)c2C#Cc2ccccn2)cc(OC)c1OC, the AC50 falls from 3.1 µM to 1.16 µM (2.7-fold).

Compared with CN(C(=S)Nc1ccc(SC(F)F)cc1)C(c1ccccc1)c1ccccc1, NC(=O)CC(NC(=O)Cc1cccc2ccccc12)c1ccc(N2CCc3ccccc3C2)c([N+](=O)[O-])c1 (centres undefined) is 3.2-fold higher in AC50: 5.58 µM for the first, 17.6 µM for the second.

First: CCCCCc1cc(=O)oc2c(C(CCN3CCCC(C)C3)c3ccc(N(C)C)cc3)c(OC)cc(OC)c12 (centres undefined)
Second: Cc1ccc(/C=C/C(=O)N2CC(C)CC(C)C2)o1 (centres undefined)
The AC50 of the first is 2.5-fold lower: 6.69 µM for the first, 17 µM for the second.

CC(=O)c1c(C)oc2c1C(=O)c1ccccc1C2=O and CCOC(=O)C1=C(C)NC(C)=C(C(=O)OCC)C1c1ccccc1/C=C/C(=O)OC(C)(C)C are within 1.5-fold of each other in AC50: 4.4 µM for the first, 4.67 µM for the second.

Molecule O=c1cc(CNc2cc(C(F)(F)F)cc(C(F)(F)F)c2)nc2sccn12 has an AC50 of 3.39 µM.

With CCOc1ccccc1N(C(=O)Nc1ccc(Cl)cc1)C1=NCCS1 the AC50 was > 19.5 µM (inactive).
For CC(C(=O)O)N1C(=O)CSc2ncccc21 (centres undefined), the AC50 was > 19.5 µM (inactive).
In the case of O=C(Nc1cccc(Cl)c1)Nc1sccc1-c1nc2ccccc2s1, the AC50 is reported as > 19.5 µM (inactive).
In the case of COc1ccc(CN2C(=O)c3cccnc3C2Nc2cc(Cl)ccc2OC)cc1 (centres undefined), the AC50 is reported as > 19.5 µM (inactive).
With Cc1ccccc1-n1c(SCC(=O)N/N=C/C=C/c2ccccc2[N+](=O)[O-])nc2ccccc2c1=O the AC50 was > 19.5 µM (inactive).
With O=[N+]([O-])c1ccc(Cl)c(/C=N/n2c(C3CCCCC3)n[nH]c2=S)c1 the AC50 was > 19.5 µM (inactive).
For Cc1nnc2sc(SCc3cccc(Cl)c3)nn2c1=O, the AC50 was > 19.5 µM (inactive).
CC(C)c1ccc(/C=C/C(=O)NC2=NCCS2)cc1 was tested, and the AC50 was > 19.5 µM (inactive).
Cc1cc(C)cc(C(=O)Nc2nnc(SCC(=O)N3CCCc4ccccc43)s2)c1 was tested, and the AC50 was > 19.5 µM (inactive).
